In patent US9227971B2, “Pyrazolo[1,5-a]pyrimidine compounds as mTOR inhibitors” (Merck Sharp & Dohme Corp., priority 2010, dated 2016) one finds IC50 data, which are given here for 15 compounds.

Assay [1] has as its system phosphorylated AKT Ser473 (pAKT S473), mTORC2 activity, PC3 cells. The assay can be described thus: mTOR target engagement assay, immunofluorescent cell-based, pAKT S473 readout (mTORC2 activity). As to conditions: Homo sapiens. On the procedure:
(§1) The target engagement of mTOR kinase inhibitors was evaluated using an immunofluorescent cell-based assay. In this assay, inhibition of mTORC1 activity was measured by the reduction in the level of phosphorylated 4E-BP1^[…] (p4E-BP1 Thr37/46), and inhibition of mTORC2 activity was measured by the reduction of phosphorylated AKT^Ser473 (pAKT S473).
PC3 cells (prostate tumor cell-line that contains a mutation in the tumor suppressor PTEN, that promotes the phosphorylation and activation of AKT and 4E-BP1) were used in the immunofluorescence assay. […] PC3 cells were then treated with 40 μl of the serially diluted test compounds (in 5% fetal bovine serum, F12 medium containing 0.25% DMSO) for ninety minutes at 37° C. The test compound solution was removed, and the plates were washed gently two times with 25 μl phosphate buffered saline (PBS). […] 5% Goat serum in PBS/0.3% Triton was used to block non-specific binding (60 minutes).
The primary antibodies targeting pAKT S473 and p4E-BP1 Thr37/46 were diluted into PBS/0.3% Triton and incubated with the cells overnight at 4° C. […] Plates were washed three times with PBS/0.1% Tween 20 before adding the secondary antibody at a 1:200 dilution.
Finally, the plates were washed three times with PBS/0.1% Tween 20 and the fluorescent intensity was read using an Analyst HT from Molecular Devices.

The test system of assay [2] is phosphorylated 4E-BP1 Thr37/46 (p4E-BP1 Thr37/46), mTORC1 activity, PC3 cells. The assay can be described thus: mTOR target engagement assay, immunofluorescent cell-based, p4E-BP1 Thr37/46 readout (mTORC1 activity). To be noted: Homo sapiens, read-out: p4E-BP1 Thr37/46 IC50. On the procedure:
as §1
PC3 cells (prostate tumor cell-line that contains a mutation in the tumor suppressor PTEN, that promotes the phosphorylation and activation of AKT and 4E-BP1) were used in the immunofluorescence assay. PC3 cells were seeded on 384 well plates (black clear bottom, Matrix #4332) overnight. PC3 cells were then treated with 40 μl of the serially diluted test compounds (in 5% fetal bovine serum, F12 medium containing 0.25% DMSO) for ninety minutes at 37° C. The test compound solution was removed, and the plates were washed gently two times with 25 μl phosphate buffered saline (PBS). The cells were fixed by adding 25 μl of Prefer reagent (from Anatech LTD, Cat#414, a glyoxal fixative for fixing proteins within a cell) for sixty minutes followed by three washes with PBS. 5% Goat serum in PBS/0.3% Triton was used to block non-specific binding (60 minutes).
The primary antibodies targeting pAKT S473 and p4E-BP1 Thr37/46 were diluted into PBS/0.3% Triton and incubated with the cells overnight at 4° C. The antibodies targeting pAKTS473 (Cat#4085, Cell signaling) and p4E-BP1 Thr37/46 (Cat#2855, Cell signaling) were used at a 1:100 dilution. Plates were washed three times with PBS/0.1% Tween 20 before adding the secondary antibody at a 1:200 dilution. (goat anti-rabbit containing a fluorescent label, Alexa Fluor 488, Cat#A11008, Invitrogen) in PBS/0.3% Triton for 60 minutes.
Finally, the plates were washed three times with PBS/0.1% Tween 20 and the fluorescent intensity was read using an Analyst HT from Molecular Devices. The fluorescent intensity values from the serially diluted compound treatment group were analyzed using the Xlfit 4 program ([…]) (Formula 205: Y=Bottom+(Top-Bottom)/(1+(IC50/X)^Hillslope) to generate the IC50 value. Where Top is the maximum signal without Compound (+DMSO only) and Bottom represents maximum inhibition. Y is the fluorescence at some compound concentration. The control used to determine the fluorescent intensities for 100% pAKT S473 or 100% phosphorylated p4E-BP1 Thr37/46 were measured from untreated wells that contained only DMSO, instead of test compound.

The mark [3] stands for this setting: PC-3, PC3 cells, compound treatment ninety minutes at 37° C.

Where two headings read alike, the source gives them in different places.

Turning to `CC(=O)c1c([C@@H]2C[C@H]3CC[C@@H](C2)N3C(=O)c2nnc[nH]2)nc2c(-c3ccc(-c4cc(F)cc(F)c4)nc3)cnn2c1N` [Compound 1.1.100, 1-(5-((1R,3r,5S)-8-(4H-1,2,4-triazole-3-carbonyl)-8-azabicyclo[3.2.1]octan-3-yl)-7-amino-3-(6-(3,5-difluorophenyl)pyridin-3-yl)pyrazolo[1,5-a]pyrimidin-6-yl)ethanone], the IC50 in assay [1] (setting [3]) and in assay [2] (setting [3]) was 100 to 1000 nM each time.

With `CC(=O)c1c([C@@H]2C[C@H]3CC[C@@H](C2)N3C(=O)c2nnc[nH]2)nc2c(-c3cnc4ccc(CO)cc4c3)cnn2c1N` [Compound 1.1.126, 1-(5-((1R,3s,5S)-8-(4H-1,2,4-triazole-3-carbonyl)-8-azabicyclo[3.2.1]octan-3-yl)-7-amino-3-(6-(hydroxymethyl)quinolin-3-yl)pyrazolo[1,5-a]pyrimidin-6-yl)ethanone], the IC50 in assay [1] (setting [3]) and in assay [2] (setting [3]) was 1000 to 10000 nM in each case.

As to `COc1ccc2ncc(-c3cnn4c(N)c(C5CC5)c([C@@H]5C[C@H]6CC[C@@H](C5)N6C(=O)c5nnc[nH]5)nc34)cc2c1` [Compound 4.24, ((1R,3s,5S)-3-(7-amino-6-cyclopropyl-3-(6-methoxyquinolin-3-yl)pyrazolo[1,5-a]pyrimidin-5-yl)-8-azabicyclo[3.2.1]octan-8-yl)(4H-1,2,4-triazol-3-yl)methanone], the IC50 in assay [1] (setting [3]) and in assay [2] (setting [3]) was 100 to 1000 nM in each case.

Regarding `CC(=O)c1c([C@@H]2C[C@H]3CC[C@@H](C2)N3C(=O)c2ncn[nH]2)nc2c(-c3cnc(C(C)(C)O)c(F)c3)cnn2c1N` [Compound 7.98, 1-(5-((1R,3s,5S)-8-(1H-1,2,4-triazole-5-carbonyl)-8-azabicyclo[3.2.1]octan-3-yl)-7-amino-3-(5-fluoro-6-(2-hydroxypropan-2-yl)pyridin-3-yl)pyrazolo[1,5-a]pyrimidin-6-yl)ethanone], the IC50 in assay [1] (PC-3, PC3 cells) is 1 to 100 nM; in assay [2] (PC-3, PC3 cells), 1 to 100 nM.

In the case of `Nc1cc([C@@H]2C[C@H]3CC[C@@H](C2)N3C(=O)c2ncn[nH]2)nc2c(-c3ccc(CO)nc3)cnn12` [Compound 7.97, ((1R,3s,5S)-3-(7-amino-3-(6-(hydroxymethyl)pyridin-3-yl)pyrazolo[1,5-a]pyrimidin-5-yl)-8-azabicyclo[3.2.1]octan-8-yl)(1H-1,2,4-triazol-5-yl)methanone], the IC50 in assay [1] (PC-3, PC3 cells) was greater than 10000 nM; in assay [2] (PC-3, PC3 cells), 1000 to 10000 nM.

Consider `COc1ccc(-c2ccc(-c3cnn4c(N)c(S(C)(=O)=O)c([C@@H]5C[C@H]6CC[C@@H](C5)N6C(=O)c5nnc[nH]5)nc34)cn2)c(F)c1` [Compound 3.32, ((1R,3s,5S)-3-(7-amino-3-(6-(2-fluoro-4-methoxyphenyl)pyridin-3-yl)-6-(methylsulfonyl)pyrazolo[1,5-a]pyrimidin-5-yl)-8-azabicyclo[3.2.1]octan-8-yl)(4H-1,2,4-triazol-3-yl)methanone], for which the IC50 in assay [1] (PC-3, Table 3-1, PC3 cells) lay within 1 to 100 nM; in assay [2] (PC-3, Table 3-1, PC3 cells), 1 to 100 nM.

On to `CC(=O)c1c([C@@H]2C[C@H]3CC[C@@H](C2)N3C(=O)c2nnc[nH]2)nc2c(-c3ccc(-c4ccc(F)cc4F)nc3)cnn2c1N` [Compound 1.1.148, 1-(5-((1R,3s,5S)-8-(4H-1,2,4-triazole-3-carbonyl)-8-azabicyclo[3.2.1]octan-3-yl)-7-amino-3-(6-(2,4-difluorophenyl)pyridin-3-yl)pyrazolo[1,5-a]pyrimidin-6-yl)ethanone], for which the IC50 in assay [1] (setting [3]) and in assay [2] (setting [3]) was 1 to 100 nM throughout.

Consider `COc1ccc(-c2ccc(-c3cnn4c(N)c(Br)c([C@@H]5C[C@H]6CC[C@@H](C5)N6C(=O)c5nnc[nH]5)nc34)cn2)cc1F` [Compound 2.4, ((1R,3s,5S)-3-(7-amino-6-bromo-3-(6-(3-fluoro-4-methoxyphenyl)pyridin-3-yl)pyrazolo[1,5-a]pyrimidin-5-yl)-8-azabicyclo[3.2.1]octan-8-yl)(4H-1,2,4-triazol-3-yl)methanone], for which the IC50 in assay [1] (setting [3]) and in assay [2] (setting [3]) was 100 to 1000 nM each time.

For `CNC(=O)c1ccc(-c2cnn3c(N)c(C(C)=O)c([C@@H]4C[C@H]5CC[C@@H](C4)N5C(=O)c4nc[nH]n4)nc23)cn1` [Compound 1.1.28, 5-(5-((1R,3s,5S)-8-(1H-1,2,4-triazole-3-carbonyl)-8-azabicyclo[3.2.1]octan-3-yl)-6-acetyl-7-aminopyrazolo[1,5-a]pyrimidin-3-yl)-N-methylpicolinamide], the IC50 in assay [1] (setting [3]) and in assay [2] (setting [3]) was 1000 to 10000 nM in each case.

In the case of `CC(=O)c1c([C@@H]2C[C@H]3CC[C@@H](C2)N3C(=O)c2nnc[nH]2)nc2c(-c3ccc(-c4ccc5nn(C)cc5c4)nc3)cnn2c1N` [Compound 1.1.70, 1-(5-((1R,3s,5S)-8-(4H-1,2,4-triazole-3-carbonyl)-8-azabicyclo[3.2.1]octan-3-yl)-7-amino-3-(6-(2-methyl-2H-indazol-5-yl)pyridin-3-yl)pyrazolo[1,5-a]pyrimidin-6-yl)ethanone], the IC50 in assay [1] (setting [3]) and in assay [2] (setting [3]) was 1 to 100 nM each time.

On to `CS(=O)(=O)c1c([C@@H]2C[C@H]3CC[C@@H](C2)N3C(=O)c2ncccc2O)nc2c(-c3ccc(-c4ccccc4)nc3)cnn2c1N` [Compound 3.13], for which the IC50 in assay [1] (PC-3, Table 3-1, PC3 cells) was in the range of 100 to 1000 nM; in assay [2] (PC-3, Table 3-1, PC3 cells) it was 100 to 1000 nM.

Take `N#Cc1ncc(-c2cnn3c(N)cc([C@@H]4C[C@H]5CC[C@@H](C4)N5C(=O)c4nnc[nH]4)nc23)cn1` [Compound 8.95, 5-(5-((1R,3s,5S)-8-(4H-1,2,4-triazole-3-carbonyl)-8-azabicyclo[3.2.1]octan-3-yl)-7-aminopyrazolo[1,5-a]pyrimidin-3-yl)pyrimidine-2-carbonitrile]: the IC50 is greater than 10000 nM in assay [1] (PC-3, PC3 cells) and greater than 10000 nM in assay [2] (PC-3, PC3 cells).

Regarding `Cc1n[nH]c(CC(=O)N2[C@@H]3CC[C@H]2C[C@H](c2nc4c(-c5ccc(-c6ccccc6)nc5)cnn4c(N)c2S(C)(=O)=O)C3)n1` [Compound 3.82, 1-((1R,3s,5S)-3-(7-amino-6-(methylsulfonyl)-3-(6-phenylpyridin-3-yl)pyrazolo[1,5-a]pyrimidin-5-yl)-8-azabicyclo[3.2.1]octan-8-yl)-2-(3-methyl-1H-1,2,4-triazol-5-yl)ethanone], the IC50 in assay [1] (PC-3, Table 3-1, PC3 cells) lay in the range of 100 to 1000 nM; in assay [2] (PC-3, Table 3-1, PC3 cells), 100 to 1000 nM.

Turning to `Nc1c(C2CC2)c(C2CC3CCC(C2)N3C(=O)c2nnc(N3CCNCC3)[nH]2)nc2c(-c3ccc(-c4ccccc4)nc3)cnn12` [Compound 8.98, ((1R,3s,5S)-3-(7-amino-6-cyclopropyl-3-(6-phenylpyridin-3-yl)pyrazolo[1,5-a]pyrimidin-5-yl)-8-azabicyclo[3.2.1]octan-8-yl)(5-(piperazin-1-yl)-4H-1,2,4-triazol-3-yl)methanone], the IC50 in assay [1] (PC-3, PC3 cells) was 1000 to 10000 nM; in assay [2] (PC-3, PC3 cells), 1000 to 10000 nM.

With `CC(=O)c1c([C@@H]2C[C@H]3CC[C@@H](C2)N3C(=O)c2nnc[nH]2)nc2c(-c3ccc(-c4nc[nH]n4)nc3)cnn2c1N` [Compound 1.1.91, 1-(3-(6-(1H-1,2,4-triazol-3-yl)pyridin-3-yl)-5-((1R,3s,5S)-8-(4H-1,2,4-triazole-3-carbonyl)-8-azabicyclo[3.2.1]octan-3-yl)-7-aminopyrazolo[1,5-a]pyrimidin-6-yl)ethanone], the IC50 in assay [1] (setting [3]) and in assay [2] (setting [3]) was 1 to 100 nM throughout.
